# Assay results taken from ChEMBL document CHEMBL4368927, “A review on flavones targeting serine/threonine protein kinases for potential anticancer drugs” (Bioorg Med Chem, 2019).
# Experiments:
# [1] = target: Mitogen-activated protein kinase 3 (Homo sapiens, UniProt P27361); assay: Inhibition of Erk-1 (unknown origin)
# [2] = target: Proto-oncogene tyrosine-protein kinase Src (Homo sapiens, UniProt P12931); assay: Inhibition of pp60 src (unknown origin)
# [3] = Inhibition of protein kinase A (unknown origin); parameters: species or system Homo sapiens
# [4] = Inhibition of CDK6/cyclin D (unknown origin); parameters: species or system Homo sapiens
# [5] = target: Cyclin-dependent kinase 4 (Homo sapiens, UniProt P11802); assay: Inhibition of human CDK4
# Sequence of Cyclin-dependent kinase 4 (P11802 whole entry): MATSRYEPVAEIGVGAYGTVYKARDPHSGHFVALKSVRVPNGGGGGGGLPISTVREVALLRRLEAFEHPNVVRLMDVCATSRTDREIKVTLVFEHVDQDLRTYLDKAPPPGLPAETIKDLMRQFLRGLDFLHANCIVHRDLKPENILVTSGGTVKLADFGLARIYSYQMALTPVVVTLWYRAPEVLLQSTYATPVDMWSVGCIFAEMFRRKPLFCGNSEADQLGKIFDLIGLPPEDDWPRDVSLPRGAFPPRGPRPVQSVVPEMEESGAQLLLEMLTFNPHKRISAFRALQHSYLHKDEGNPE
# [6] = target: Cyclin-dependent kinase 1 (Homo sapiens, UniProt P06493); assay: Inhibition of human CDK1
# Sequence of Cyclin-dependent kinase 1 (P06493 whole entry): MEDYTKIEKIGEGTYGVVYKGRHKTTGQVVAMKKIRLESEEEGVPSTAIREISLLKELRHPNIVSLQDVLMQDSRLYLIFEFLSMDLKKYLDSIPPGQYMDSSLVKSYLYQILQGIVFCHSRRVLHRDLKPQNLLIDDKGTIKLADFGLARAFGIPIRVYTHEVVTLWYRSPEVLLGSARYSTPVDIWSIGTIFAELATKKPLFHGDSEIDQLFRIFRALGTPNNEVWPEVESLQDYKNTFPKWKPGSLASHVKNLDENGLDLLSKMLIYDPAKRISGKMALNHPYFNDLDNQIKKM
# [7] = target: Cyclin-dependent kinase 6 (Homo sapiens, UniProt Q00534); assay: Inhibition of human CDK6
# Sequence of Cyclin-dependent kinase 6 (Q00534 whole entry): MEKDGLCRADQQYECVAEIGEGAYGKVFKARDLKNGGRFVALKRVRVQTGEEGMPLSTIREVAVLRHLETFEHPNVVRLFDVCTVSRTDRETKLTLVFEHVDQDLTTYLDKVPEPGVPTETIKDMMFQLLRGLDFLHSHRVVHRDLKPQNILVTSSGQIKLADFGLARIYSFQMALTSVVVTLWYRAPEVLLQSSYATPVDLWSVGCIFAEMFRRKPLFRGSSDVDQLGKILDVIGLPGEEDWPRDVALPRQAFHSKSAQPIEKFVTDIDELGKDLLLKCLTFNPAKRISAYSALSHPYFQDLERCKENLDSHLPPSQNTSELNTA
# [8] = target: Protein kinase C (PKC) (Rattus norvegicus) (UniProt P05696+P68403+P09216+P63319+P09215+Q64617+Q9WTQ0+P09217); assay: Inhibition of PKC in rat brain homogenate at 50 uM using FKKSFKL-NH2 as substrate preincubated for 10 mins followed by substrate addition and measured after 5 mins in presence of [gamma-32P]ATP by liquid scintillation counting analysis relative to control; format: tissue-based
# [9] = target: Protein kinase C (PKC); assay: Inhibition of PKC in rat brain homogenate using FKKSFKL-NH2 as substrate preincubated for 10 mins followed by substrate addition and measured after 5 mins in presence of [gamma-32P]ATP by liquid scintillation counting analysis; format: tissue-based
# [10] = target: Cyclin-dependent kinase 2/cyclin E1 (Homo sapiens, UniProt P24941); assay: Inhibition of human CDK2/cyclin E expressed in baculovirus expression system after 30 mins in presence of [gamma-33P]ATP by scintillation counting analysis
# [11] = system: HT-29; assay: Antiproliferative activity against human HT-29 cells assessed as reduction in [3H]-thymidine incorporation after 48 hrs by liquid scintillation assay; format: functional, cell-based
# [12] = target: CDK7/Cyclin H/MNAT1 (Homo sapiens, UniProt P50613); assay: Inhibition of recombinant human full length C-terminal His6-tagged and N-terminal GST-tagged CDK7/cyclinH/MAT1 expressed in baculovirus Sf21 insect cells after 40 mins in presence of [gamma-32P]ATP by scintillation counting analysis
# Sequence of CDK7/Cyclin H/MNAT1 (P51946 whole entry): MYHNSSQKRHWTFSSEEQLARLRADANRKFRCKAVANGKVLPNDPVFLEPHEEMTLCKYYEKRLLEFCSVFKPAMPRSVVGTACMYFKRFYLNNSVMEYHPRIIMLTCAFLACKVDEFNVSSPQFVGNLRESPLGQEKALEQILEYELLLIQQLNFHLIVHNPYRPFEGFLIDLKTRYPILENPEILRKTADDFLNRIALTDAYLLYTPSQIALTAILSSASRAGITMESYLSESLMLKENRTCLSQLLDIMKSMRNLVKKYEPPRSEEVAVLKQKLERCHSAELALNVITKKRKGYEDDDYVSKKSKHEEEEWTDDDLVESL
# Sequence of CDK7/Cyclin H/MNAT1 (P50613 whole entry): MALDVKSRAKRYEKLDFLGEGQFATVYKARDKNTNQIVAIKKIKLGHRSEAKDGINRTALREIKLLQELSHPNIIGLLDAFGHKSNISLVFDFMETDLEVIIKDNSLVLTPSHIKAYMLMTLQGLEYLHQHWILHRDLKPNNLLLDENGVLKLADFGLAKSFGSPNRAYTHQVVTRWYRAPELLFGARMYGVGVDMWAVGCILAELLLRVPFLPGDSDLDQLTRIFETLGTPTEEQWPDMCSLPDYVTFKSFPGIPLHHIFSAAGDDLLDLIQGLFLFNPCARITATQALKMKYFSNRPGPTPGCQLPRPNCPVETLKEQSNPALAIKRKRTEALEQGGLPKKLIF
# Sequence of CDK7/Cyclin H/MNAT1 (P51948 whole entry, further chain): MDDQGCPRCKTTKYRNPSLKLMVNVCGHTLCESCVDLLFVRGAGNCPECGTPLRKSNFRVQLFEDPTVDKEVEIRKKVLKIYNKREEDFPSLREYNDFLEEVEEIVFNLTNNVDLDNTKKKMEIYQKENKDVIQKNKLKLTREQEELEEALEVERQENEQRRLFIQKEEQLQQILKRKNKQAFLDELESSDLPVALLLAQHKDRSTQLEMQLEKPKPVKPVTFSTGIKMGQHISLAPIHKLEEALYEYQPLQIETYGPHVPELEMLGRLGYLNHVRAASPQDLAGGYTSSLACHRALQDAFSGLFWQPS
# [13] = target: Serine/threonine-protein kinase pim-1 (Homo sapiens) (UniProt P11309)
# Sequence of Serine/threonine-protein kinase pim-1 (Homo sapiens) (P11309 whole entry, looked up): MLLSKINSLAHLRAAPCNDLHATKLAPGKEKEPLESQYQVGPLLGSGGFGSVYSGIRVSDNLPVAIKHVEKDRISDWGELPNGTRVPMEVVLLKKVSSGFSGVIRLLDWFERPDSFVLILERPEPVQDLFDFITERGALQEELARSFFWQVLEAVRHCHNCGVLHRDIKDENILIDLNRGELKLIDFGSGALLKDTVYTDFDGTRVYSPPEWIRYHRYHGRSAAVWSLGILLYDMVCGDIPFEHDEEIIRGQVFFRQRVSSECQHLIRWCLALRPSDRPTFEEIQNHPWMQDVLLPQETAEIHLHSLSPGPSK
# Description: Inhibition of PIM1 in human RWPE2 cells assessed as inhibition of cell growth
# Sequence of Proto-oncogene tyrosine-protein kinase Src (P12931 2-536 limits assumed): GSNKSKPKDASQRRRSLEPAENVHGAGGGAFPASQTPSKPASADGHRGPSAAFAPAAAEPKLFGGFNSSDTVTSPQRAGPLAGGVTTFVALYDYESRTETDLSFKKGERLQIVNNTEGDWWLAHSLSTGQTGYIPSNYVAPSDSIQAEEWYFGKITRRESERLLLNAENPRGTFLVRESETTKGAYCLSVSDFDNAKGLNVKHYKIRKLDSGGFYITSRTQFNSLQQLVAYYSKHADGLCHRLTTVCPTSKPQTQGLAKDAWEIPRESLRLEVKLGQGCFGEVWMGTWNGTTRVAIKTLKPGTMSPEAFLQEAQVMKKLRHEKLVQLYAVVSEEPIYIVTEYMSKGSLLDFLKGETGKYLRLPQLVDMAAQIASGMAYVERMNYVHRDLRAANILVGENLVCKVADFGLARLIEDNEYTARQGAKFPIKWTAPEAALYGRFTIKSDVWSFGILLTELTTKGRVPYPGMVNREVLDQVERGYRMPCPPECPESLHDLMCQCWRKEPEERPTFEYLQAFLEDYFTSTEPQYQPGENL
# Sequence of Mitogen-activated protein kinase 3 (P27361 whole entry): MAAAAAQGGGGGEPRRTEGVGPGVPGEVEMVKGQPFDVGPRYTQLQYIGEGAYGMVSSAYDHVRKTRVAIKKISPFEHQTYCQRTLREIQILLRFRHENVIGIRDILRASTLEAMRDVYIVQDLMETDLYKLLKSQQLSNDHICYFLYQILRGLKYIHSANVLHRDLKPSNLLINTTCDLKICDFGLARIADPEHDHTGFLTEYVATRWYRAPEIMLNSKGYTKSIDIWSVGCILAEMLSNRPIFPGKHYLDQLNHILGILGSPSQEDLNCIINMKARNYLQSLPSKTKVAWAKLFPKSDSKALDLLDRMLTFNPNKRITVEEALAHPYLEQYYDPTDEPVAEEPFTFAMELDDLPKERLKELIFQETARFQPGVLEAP
smiles,measurement,setting,value
CN1CC[C@H](c2c(O)cc(O)c3c(=O)cc(-c4ccccc4Cl)oc23)[C@H](O)C1 [ALVOCIDIB],IC50,[1],16 µM
same,IC50,[2],34 µM
same,IC50,[3],122 to 145 µM
same,IC50,[4],0.06 µM
CN1CC[C@@H](c2c(O)cc(O)c3c(=O)cc(-c4ccc(C(F)(F)F)cc4Cl)oc23)[C@@H]1CO [VORUCICLIB],IC50,[5],< 0.1 µM
same,IC50,[6],< 0.1 µM
same,IC50,[7],< 0.1 µM
O=c1c(O)c(-c2ccc(O)c(O)c2)oc2cc(O)cc(O)c12,inhibition,[8],64%
O=c1c(O)c(-c2cc(O)c(O)c(O)c2)oc2cc(O)cc(O)c12 [MYRICETIN],IC50,[9],7.8 µM
O=c1c(O)c(-c2ccc(O)c(O)c2)oc2cc(O)ccc12,inhibition,[8],85%
CN1CC[C@H](c2c(O)cc(O)c3c(=O)cc(-c4ccccc4Cl)oc23)[C@H]1CO,IC50,[10],21 µM
same,IC50,[11],17.9 µM
COc1c(O)cc(O)c2c(=O)cc(-c3ccccc3)oc12 [WOGONIN],IC50,[12],12.3 µM
CN1CC[C@@H](c2c(O)cc(O)c3c(=O)cc(-c4ccc([N+](=O)[O-])cc4Cl)oc23)[C@@H]1CO,IC50,[10],1.7 µM
same,IC50,[11],1.2 µM
O=c1cc(-c2ccc(O)c(O)c2)oc2cc(O)cc(O)c12,inhibition,[8],70%
CN1CC[C@@H](c2c(O)cc(O)c3c(=O)cc(-c4ccccc4Cl)oc23)[C@@H]1CO,IC50,[10],2.8 µM
same,IC50,[11],0.58 µM
O=c1c(O)c(-c2ccc(O)c(O)c2)oc2cc(O)c(O)c(O)c12,ED50,[13],5.5 µM
